Patent US20120034193A1, “TREATMENT OF NEUROTROPHIC FACTOR MEDIATED DISORDERS” (priority 2009, published 2012)

Experiments:
Rat sensory neurones = test: Neuronal survival in sensory neurones; format: cell-based, Wistar rat; conditions: 300 nM, 2 days
Experimental: Rat sensory neurones were obtained from Wistar rat embryos on the 15th day of gestation. Cells were cultured at 37° C. in 5% CO2/95% air atmosphere. Following 2 days of culturing with sarsasapogenin, smilagenin, vehicle (DMSO, 0.25%) or NGF, sensory neurones were rinsed twice with PBS and fixed in paraformaldehyde (4%) in PBS for 30 min at 4° C. Cells were permeabilised with Triton X-100 (0.1%) and non-specific sites were saturated using foetal bovine serum. Prior to staining, cells were incubated for 2 h at room temperature with a mixture of primary antibodies: anti-neurofilament 68 and 200 in PBS containing foetal bovine serum 5%. Prior to washing, slides were demounted and the cells were washed twice with PBS for 5 min, placed in a dark room for 1 h and incubated with a secondary antibody: anti-mouse coupled with cyanine 3 (Cy3; 1/1600) and an anti-rabbit coupled with fluoroisothiocyanate (FITC; 1/200) in PBS containing foetal bovine serum (5%). Slides were washed twice with PBS for 5 min and mounted on coverslips using Mowiol, an antioxidative solution (9% w/v) in glycerol (22%) buffered with Tris/HCl ([…]; pH 8.5). Slides were left overnight at room temperature to harden and stored in light protected conditions. Slides were viewed using a DAPI/FITC/Cy3 triple filter microscope with a ×20 objective. A series of photographs per well were taken at random using a digital camera.

Rat cortical neurones = test: Neuronal survival and neurite outgrowth of cortical neurones cultured in the absence of serum; format: cell-based; conditions: 30 nM, one day, no serum
Experimental: Rat cortical neurones were cultured following the method described above.
The test compounds were added for 24 h.
Rat cortical neurones were exposed to sarsasapogenin, smilagenin (30 nM) or vehicle (DMSO, 0.25%) in the absence FBS or FCS for one day. Cortical neurones were stained using a monoclonal antibody anti β-tubulin diluted and an anti mouse Immunoglobulin G diluted. These antibodies stained neurone cell bodies (quantifying the neuroprotective effect) and neurites (quantifying the neurotrophic effect). An epifluorecence microscope (magnification ×20) with a camera took 2 pictures per well (10 pictures per condition). Analyses of the number of cells labelled with anti β-tubulin antibodies and of the total number of cells was performed using LUCIA 6.0 software.

[1] = Tissue distribution after a single oral administration, rat; format: in vivo; conditions: 18 mg/kg single oral
BDNF = BDNF protein in culture medium of rat cortical neurones under basal conditions; format: cell-based; conditions: 10 μM, day 8 to day 12, basal culture; control 3.66 ± 0.05
Experimental: Rat cortical neurones were cultured by modification of a method previously described (Eckenstein and Sofroniew, Journal of Neuroscience, 1983, 3, pp. 2286-2291). On day 8, the culture medium was changed to a medium containing vehicle (DMSO, 0.5%) or smilagenin (10 μM). On day 12 the concentration of BDNF in the culture medium, was measured.

[2] = system: Protein Serine/Threonine Kinase, PKC, Non-Selective; test: Functional assay; format: biochemical, Rat; conditions: smilagenin 1 μM
Experimental: (§1) The enzyme activity modulation was investigated using the following method: Sarsasapogenin was incubated with each enzyme plus a specific substrate for each enzyme. After the incubation period the reaction was stopped and the reduction of the specific substrate or the increase in a specific product in the absence and presence of sarsasapogenin was measured and the percent inhibition of the reaction in the presence of sarsasapogenin was calculated. The amount of enzyme used, the incubation conditions, the substrate used and the method of quantification varied depending on each specific assay.
(§2) Using the same methods as described above, the binding of smilagenin (1 μM) to the receptors listed in Table 2 below, and the effect of smilagenin on the activity of the enzymes listed in Table 2 below, were investigated.

[3] = Long term oral toxicity study, non-rodents; format: in vivo; conditions: high doses, up to 52 weeks in non-rodents
[4] = biological target: Protein Serine/Threonine Kinase, MAPK3 (ERK1) (Homo sapiens, UniProt P27361); test: Functional assay; format: biochemical; conditions: smilagenin 1 μM
Chain of Protein Serine/Threonine Kinase, MAPK3 (ERK1) (P27361 whole entry): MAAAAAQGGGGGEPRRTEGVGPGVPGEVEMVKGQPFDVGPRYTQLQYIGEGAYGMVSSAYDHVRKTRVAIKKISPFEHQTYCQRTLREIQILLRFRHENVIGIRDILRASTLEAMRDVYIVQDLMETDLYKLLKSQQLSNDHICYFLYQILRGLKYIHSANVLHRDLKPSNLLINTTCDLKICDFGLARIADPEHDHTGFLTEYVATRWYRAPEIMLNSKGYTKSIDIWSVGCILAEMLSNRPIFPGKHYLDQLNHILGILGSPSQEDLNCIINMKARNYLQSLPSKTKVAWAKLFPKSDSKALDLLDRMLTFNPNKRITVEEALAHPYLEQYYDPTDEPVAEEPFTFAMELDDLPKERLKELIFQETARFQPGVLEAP
Experimental: as §1, §2

[5] = system: rat primary cortical neurones; test: Pre-treatment against glutamate-induced damage (LDH) in cortical neurones; format: cell-based; conditions: for Neuronal survival (% of control): 24 h before and 24 h after glutamate 100 μM 10 min

C[C@@H]1CC[C@@]2(OC1)O[C@H]1C[C@H]3[C@@H]4CC[C@@H]5C[C@@H](O)CC[C@]5(C)[C@H]4CC[C@]3(C)[C@H]1[C@@H]2C [Smilagenin, smilagenin]
Neuronal survival (% of control) (Rat sensory neurones): 124.02 ± 7.64 % of control | Neurite outgrowth (% of control) (Rat cortical neurones): 173.89 ± 9.23 % of control | Neuronal survival (% of control) (Rat cortical neurones): 155.36 ± 4.75 % of control | Concentration of compound, Brain ([1]; Rat F, 1 h): 704 ng equivalents/g tissue | Concentration of compound, Plasma ([1]; Rat F, 1 h): 1626 ng equivalents/g tissue | Concentration of compound, Spinal cord ([1]; Rat F, 1 h): 608 ng equivalents/g tissue | Concentration of compound, Brain ([1]; Rat F, 4 h): 2330 ng equivalents/g tissue | Concentration of compound, Plasma ([1]; Rat F, 4 h): 1824 ng equivalents/g tissue | Concentration of compound, Spinal cord ([1]; Rat F, 4 h): 2049 ng equivalents/g tissue | Concentration of compound, Brain ([1]; Rat F, 8 h): 2940 ng equivalents/g tissue | Concentration of compound, Plasma ([1]; Rat F, 8 h): 1658 ng equivalents/g tissue | Concentration of compound, Spinal cord ([1]; Rat F, 8 h): 2823 ng equivalents/g tissue | Concentration of compound, Brain ([1]; Rat F, 24 h): 954 ng equivalents/g tissue | Concentration of compound, Plasma ([1]; Rat F, 24 h): 394 ng equivalents/g tissue | Concentration of compound, Spinal cord ([1]; Rat F, 24 h): 1284 ng equivalents/g tissue | Concentration of compound, Brain ([1]; Rat F, 168 h): 52 ng equivalents/g tissue | Concentration of compound, Plasma ([1]; Rat F, 168 h): 46 ng equivalents/g tissue | Concentration of compound, Spinal cord ([1]; Rat F, 168 h): 243 ng equivalents/g tissue | Concentration of compound, Brain ([1]; Rat M, 1 h): 769 ng equivalents/g tissue | Concentration of compound, Plasma ([1]; Rat M, 1 h): 2045 ng equivalents/g tissue | Concentration of compound, Spinal cord ([1]; Rat M, 1 h): 958 ng equivalents/g tissue | Concentration of compound, Brain ([1]; Rat M, 4 h): 3372 ng equivalents/g tissue | Concentration of compound, Plasma ([1]; Rat M, 4 h): 3842 ng equivalents/g tissue | Concentration of compound, Spinal cord ([1]; Rat M, 4 h): 3286 ng equivalents/g tissue | Concentration of compound, Brain ([1]; Rat M, 8 h): 4457 ng equivalents/g tissue | Concentration of compound, Plasma ([1]; Rat M, 8 h): 3896 ng equivalents/g tissue | Concentration of compound, Spinal cord ([1]; Rat M, 8 h): 4520 ng equivalents/g tissue | Concentration of compound, Brain ([1]; Rat M, 24 h): 1417 ng equivalents/g tissue | Concentration of compound, Plasma ([1]; Rat M, 24 h): 857 ng equivalents/g tissue | Concentration of compound, Spinal cord ([1]; Rat M, 24 h): 1957 ng equivalents/g tissue | Concentration of compound, Brain ([1]; Rat M, 168 h): 122 ng equivalents/g tissue | Concentration of compound, Plasma ([1]; Rat M, 168 h): 122 ng equivalents/g tissue | Concentration of compound, Spinal cord ([1]; Rat M, 168 h): 256 ng equivalents/g tissue | BDNF concentration (BDNF): 3.67 ± 0.05 pg/mL | Effect (%) [2]: NS (NS = No significant response. Significance was taken as ≧30% stimulation or inhibition) | Long term toxicity [3]: without showing any signs of toxicity or adverse events | Effect (%) [4]: NS (NS = No significant response. Significance was taken as ≧30% stimulation or inhibition) | Neuronal survival (% of control) ([5]; 1 nM): 81.53 ± 1.66 % of control | Neuronal survival (% of control) ([5]; 3 nM): 78.19 ± 1.85 % of control | Neuronal survival (% of control) ([5]; 10 nM): 82.50 ± 1.00 % of control | Neuronal survival (% of control) ([5]; 30 nM): 89.86 ± 3.55 % of control | Neuronal survival (% of control) ([5]; 100 nM): 82.45 ± 2.18 % of control | Toxicity at the plateau of activity ([5]; nanomolar concentration, cortical neurones in vitro): without causing any toxicity
